Tests used:
[1] = system: NCI-H226; assay: NCI 60-cell line one dose antiproliferative assay; format: cell-based; conditions: Homo sapiens; NCI-H226, Non-Small Cell Lung Cancer, 10 µM one dose; read-out: Percent inhibition (cell growth inhibition %)
Description: (§1) The National Cancer Institute "NCI", NIH, Bethesda, Maryland, USA (www.dtp.nci.nih.gov) chose six of the final compounds for the Developmental Therapeutic Program (DTP), codes (5a, 5b, 5c, 5d, 6a, 6b). The NCI screening service will favor compounds with drug-like modes of action based on computer-aided design. Selection The criterion for screening is the possibility of the submitted compounds to provide diversity to the NCI small molecule chemical collection. This screen employs 60 different Leukemia, melanoma, and additional tumor cell lines of the human from brain, kidney, lung, ovary, colon, breast, and prostate cancers. All compounds were picked based on their NCI codes. NSC: D-820696/1, NSC: D-820697/1, NSC: D-820698/1, NSC: D-820699/1, NSC: D-820700/1, NSC: D-820701/1. The initial 10 µM one dose percent inhibition assay was performed on the entire NCI 60 cell panel to examine the different chemotypes of this work. The results are presented as a percentage of cell growth on each of the 60 NCI cell line panels for each of the investigated substances in Table 2.
(§2) The NCI cancer screening procedure includes a comparison of all substances to the sixty NCI cell line panel representing leukemia, NSCLC, cell lines from breast cancer, prostate cancer, melanoma, CNS cancer, renal cancer, ovarian cancer, and colon cancer at a single point of 10 uM. The results of the single-dose screen can be presented using a mean graph.

[2] = system: T-47D; assay: NCI 60-cell line one dose antiproliferative assay; format: cell-based; conditions: Homo sapiens, T47D, Breast Cancer, 10 µM one dose, read-out: Percent inhibition (cell growth inhibition %)
Description: as §1, §2

[3] = system: UACC-62; assay: NCI 60-cell line one dose antiproliferative assay; format: cell-based; conditions: Homo sapiens; UACC-62, Melanoma, 10 µM one dose; read-out: Percent inhibition (cell growth inhibition %)
Description: as §1, §2

[4] = system: SK-MEL-5; assay: NCI 60-cell line one dose antiproliferative assay; format: cell-based; conditions: Homo sapiens; SK-MEL-5, Melanoma, 10 µM one dose; read-out: Percent inhibition (cell growth inhibition %)
Description: as §1, §2

[5] = system: NCI-H460; assay: NCI 60-cell line one dose antiproliferative assay; format: cell-based; conditions: Homo sapiens; NCI-H460, Non-Small Cell Lung Cancer, 10 µM one dose; read-out: Percent inhibition (cell growth inhibition %)
Description: as §1, §2

[6] = system: NCI-H322M; assay: NCI 60-cell line one dose antiproliferative assay; format: cell-based; conditions: Homo sapiens, Non-Small Cell Lung Cancer, 10 µM one dose, read-out: Percent inhibition (cell growth inhibition %)
Description: as §1, §2

[7] = system: NCI-H522; assay: NCI 60-cell line one dose antiproliferative assay; format: cell-based; conditions: Homo sapiens; NCI-H522, Non-Small Cell Lung Cancer, 10 µM one dose; read-out: Percent inhibition (cell growth inhibition %)
Description: as §1, §2

[8] = system: A498; assay: NCI 60-cell line one dose antiproliferative assay; format: cell-based; conditions: Homo sapiens; A498, Renal Cancer, 10 µM one dose; read-out: Percent inhibition (cell growth inhibition %)
Description: as §1, §2

[9] = system: SNB-75; assay: NCI 60-cell line one dose antiproliferative assay; format: cell-based; conditions: Homo sapiens; SNB-75, CNS Cancer, 10 µM one dose; read-out: Percent inhibition (cell growth inhibition %)
Description: as §1, §2

[10] = system: MCF7; assay: NCI 60-cell line one dose antiproliferative assay; format: cell-based; conditions: Homo sapiens; MCF7, Breast Cancer, 10 µM one dose; read-out: Percent inhibition (cell growth inhibition %)
Description: as §1, §2

[11] = system: SF-268; assay: NCI 60-cell line one dose antiproliferative assay; format: cell-based; conditions: Homo sapiens; SF-268, CNS Cancer, 10 µM one dose; read-out: Percent inhibition (cell growth inhibition %)
Description: as §1, §2

[12] = system: HS 578 T; assay: NCI 60-cell line one dose antiproliferative assay; format: cell-based; conditions: Homo sapiens, Breast Cancer, 10 µM one dose, read-out: Percent inhibition (cell growth inhibition %)
Description: as §1, §2

[13] = system: RXF 393; assay: NCI 60-cell line one dose antiproliferative assay; format: cell-based; conditions: Homo sapiens; RXF 393, Renal Cancer, 10 µM one dose; read-out: Percent inhibition (cell growth inhibition %)
Description: as §1, §2

[14] = system: SNB-19; assay: NCI 60-cell line one dose antiproliferative assay; format: cell-based; conditions: Homo sapiens; SNB-19, CNS Cancer, 10 µM one dose; read-out: Percent inhibition (cell growth inhibition %)
Description: as §1, §2

[15] = system: PC-3; assay: NCI 60-cell line one dose antiproliferative assay; format: cell-based; conditions: Homo sapiens; PC-3, Prostate Cancer, 10 µM one dose; read-out: Percent inhibition (cell growth inhibition %)
Description: as §1, §2

[16] = system: SW-620; assay: NCI 60-cell line one dose antiproliferative assay; format: cell-based; conditions: Homo sapiens; SW-620, Colon Cancer, 10 µM one dose; read-out: Percent inhibition (cell growth inhibition %)
Description: as §1, §2

[17] = system: MOLT-4; assay: NCI 60-cell line one dose antiproliferative assay; format: cell-based; conditions: Homo sapiens; MOLT-4, Leukemia, 10 µM one dose; read-out: Percent inhibition (cell growth inhibition %)
Description: as §1, §2

[18] = system: A549/ ATCC; assay: NCI 60-cell line one dose antiproliferative assay; format: cell-based; conditions: Homo sapiens, Non-Small Cell Lung Cancer, 10 µM one dose, read-out: Percent inhibition (cell growth inhibition %)
Description: as §1, §2

[19] = system: MDA-MB-468; assay: NCI 60-cell line one dose antiproliferative assay; format: cell-based; conditions: Homo sapiens; MDA-MB-468, Breast Cancer, 10 µM one dose; read-out: Percent inhibition (cell growth inhibition %)
Description: as §1, §2

[20] = system: CAKI-1; assay: NCI 60-cell line one dose antiproliferative assay; format: cell-based; conditions: Homo sapiens; CAKI-1, Renal Cancer, 10 µM one dose; read-out: Percent inhibition (cell growth inhibition %)
Description: as §1, §2

[21] = system: UO-31; assay: NCI 60-cell line one dose antiproliferative assay; format: cell-based; conditions: Homo sapiens; UO-31, Renal Cancer, 10 µM one dose; read-out: Percent inhibition (cell growth inhibition %)
Description: as §1, §2

[22] = system: IGROV1; assay: NCI 60-cell line one dose antiproliferative assay; format: cell-based; conditions: Homo sapiens, IGROV-1; IGROV1, Ovarian Cancer, 10 µM one dose; read-out: Percent inhibition (cell growth inhibition %)
Description: as §1, §2

[23] = system: OVCAR-5; assay: NCI 60-cell line one dose antiproliferative assay; format: cell-based; conditions: Homo sapiens; OVCAR-5, Ovarian Cancer, 10 µM one dose; read-out: Percent inhibition (cell growth inhibition %)
Description: as §1, §2

[24] = system: LOX IMVI; assay: NCI 60-cell line one dose antiproliferative assay; format: cell-based; conditions: Homo sapiens, Melanoma, 10 µM one dose, read-out: Percent inhibition (cell growth inhibition %)
Description: as §1, §2

[25] = target: GSK-3β (Homo sapiens, UniProt P49841); assay: GSK-3β kinase inhibition, Z'-LYTE FRET assay (Thermo Fisher SelectScreen); format: biochemical; conditions: for inhibition at 100 µM: 100 μM single dose
[26] = system: MDA-MB-231/ATCC; assay: NCI 60-cell line one dose antiproliferative assay; format: cell-based; conditions: Homo sapiens, Breast Cancer, 10 µM one dose, read-out: Percent inhibition (cell growth inhibition %)
Description: as §1, §2

[27] = system: U251; assay: NCI 60-cell line one dose antiproliferative assay; format: cell-based; conditions: Homo sapiens, U-251; U251, CNS Cancer, 10 µM one dose; read-out: Percent inhibition (cell growth inhibition %)
Description: as §1, §2

[28] = system: K-562; assay: NCI 60-cell line one dose antiproliferative assay; format: cell-based; conditions: Homo sapiens, K562; K-562, Leukemia, 10 µM one dose; read-out: Percent inhibition (cell growth inhibition %)
Description: as §1, §2

[29] = system: BT-549; assay: NCI 60-cell line one dose antiproliferative assay; format: cell-based; conditions: Homo sapiens; BT-549, Breast Cancer, 10 µM one dose; read-out: Percent inhibition (cell growth inhibition %)
Description: as §1, §2

[30] = system: SR; assay: NCI 60-cell line one dose antiproliferative assay; format: cell-based; conditions: Homo sapiens, Leukemia, 10 µM one dose, read-out: Percent inhibition (cell growth inhibition %)
Description: as §1, §2

[31] = system: HCT-116; assay: NCI 60-cell line one dose antiproliferative assay; format: cell-based; conditions: Homo sapiens; HCT-116, Colon Cancer, 10 µM one dose; read-out: Percent inhibition (cell growth inhibition %)
Description: as §1, §2

[32] = system: SN12C; assay: NCI 60-cell line one dose antiproliferative assay; format: cell-based; conditions: Homo sapiens, Renal Cancer, 10 µM one dose, read-out: Percent inhibition (cell growth inhibition %)
Description: as §1, §2

[33] = system: 786–0; assay: NCI 60-cell line one dose antiproliferative assay; format: cell-based; conditions: Homo sapiens; 786–0, Renal Cancer, 10 µM one dose; read-out: Percent inhibition (cell growth inhibition %)
Description: as §1, §2

[34] = system: EKVX; assay: NCI 60-cell line one dose antiproliferative assay; format: cell-based; conditions: Homo sapiens, Non-Small Cell Lung Cancer, 10 µM one dose, read-out: Percent inhibition (cell growth inhibition %)
Description: as §1, §2

[35] = system: NCI-H23; assay: NCI 60-cell line one dose antiproliferative assay; format: cell-based; conditions: Homo sapiens; NCI-H23, Non-Small Cell Lung Cancer, 10 µM one dose; read-out: Percent inhibition (cell growth inhibition %)
Description: as §1, §2

[36] = system: MDA-MB-435; assay: NCI 60-cell line one dose antiproliferative assay; format: cell-based; conditions: Homo sapiens; MDA-MB-435, Melanoma, 10 µM one dose; read-out: Percent inhibition (cell growth inhibition %)
Description: as §1, §2

[37] = system: SF-539; assay: NCI 60-cell line one dose antiproliferative assay; format: cell-based; conditions: Homo sapiens; SF-539, CNS Cancer, 10 µM one dose; read-out: Percent inhibition (cell growth inhibition %)
Description: as §1, §2

GSK-3β, sequence (P49841 whole entry): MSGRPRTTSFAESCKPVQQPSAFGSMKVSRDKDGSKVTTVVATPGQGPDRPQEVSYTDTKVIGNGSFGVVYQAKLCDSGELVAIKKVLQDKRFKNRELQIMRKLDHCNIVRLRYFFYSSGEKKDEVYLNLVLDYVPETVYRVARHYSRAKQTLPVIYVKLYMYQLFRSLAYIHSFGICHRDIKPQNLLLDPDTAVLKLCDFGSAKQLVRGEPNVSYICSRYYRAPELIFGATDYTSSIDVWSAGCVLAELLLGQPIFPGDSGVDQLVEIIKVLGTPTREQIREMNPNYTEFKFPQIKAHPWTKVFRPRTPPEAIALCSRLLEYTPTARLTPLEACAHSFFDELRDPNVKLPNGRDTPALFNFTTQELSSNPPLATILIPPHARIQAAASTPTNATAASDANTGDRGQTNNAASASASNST

Row | melting point [°C] | inhibition at 100 µM [25] [%] | SMILES | inhibition at 10 µM [3] [%] | inhibition at 10 µM [7] [%] | inhibition at 10 µM [8] [%] | inhibition at 10 µM [9] [%] | inhibition at 10 µM [10] [%] | inhibition at 10 µM [11] [%] | inhibition at 10 µM [12] [%] | inhibition at 10 µM [14] [%] | inhibition at 10 µM [17] [%] | inhibition at 10 µM [18] [%] | inhibition at 10 µM [20] [%] | inhibition at 10 µM [21] [%] | inhibition at 10 µM [22] [%] | inhibition at 10 µM [23] [%] | inhibition at 10 µM [24] [%] | other results
1 | 285 | 50 | CN(C)c1ccc(C=NNC(=O)COc2ncnc3sc4c(c23)CCCC4)cc1 [5d, N'-(4-(Dimethylamino)benzylidene)-2-((5,6,7,8-tetrahydrobenzo [4,5]thieno[2,3-d]pyrimidin-4-yl)oxy) acetohydrazide] | 5.34 | 4.74 | 48.4 | 18.8 | 7.82 | 1.44 | 5.71 | 3.31 | 0.81 | 1.15 | 5.26 | 24 | 14.4 | 8.97 | 2.93 | inhibition at 10 µM [1]: 8.81%; inhibition at 10 µM [2]: 0.95%; inhibition at 10 µM [4]: 0.27%; inhibition at 10 µM [5]: 1.04%; inhibition at 10 µM [6]: 3.69%; inhibition at 10 µM [13]: 7.97%; inhibition at 10 µM [15]: 3.93%; inhibition at 10 µM [16]: 2.39%; inhibition at 10 µM [19]: 15.8%; inhibition at 10 µM ([25]; 10 μM): 5%
2 | 290 to 292 | 43 | O=C(COc1ncnc2sc3c(c12)CCCC3)NN=Cc1ccc(Br)cc1 [5c, N'-(4-Bromobenzylidene)-2-((5,6,7,8-tetrahydrobenzo[4,5]thieno[2,3-d]pyrimidin-4-yl)oxy)acetohydrazide] | 6.58 | 10.3 | 21.3 | 13.6 | 8.67 | 5.08 | 7.31 | 5.53 | 9.38 | 1.87 | 16.7 | 16.6 | 2.52 | 10 | 3.68 | inhibition at 10 µM [26]: 11.2%; inhibition at 10 µM [27]: 6.99%; inhibition at 10 µM [28]: 13.5%; inhibition at 10 µM [29]: 2.58%; inhibition at 10 µM [30]: 8.29%; inhibition at 10 µM [31]: 3.24%; inhibition at 10 µM [32]: 3.09%; inhibition at 10 µM [33]: 5.22%; inhibition at 10 µM [34]: 3.66%; inhibition at 10 µM [35]: 0.25%; inhibition at 10 µM [36]: 0.85%; inhibition at 10 µM [37]: 1.02%
